{"source": "patent US20100015709A1", "about": "“Regulating Stem Cell Differentiation By Controlling 2D and 3D Matrix Elasticity” (Trustees of the University of Pennsylvania, priority 2006, published 2010)", "key": {"neuronal motility": {"tested_on": "neuronal motility", "conditions": "at mM concentrations; cited from earlier work"}, "NMM II ATPase": {"tested_on": "NMM II ATPase", "conditions": "cited from earlier work"}, "MSCs [1]": {"tested_on": "MSCs", "test": "3D hydrogel sandwich overlay, cell morphology", "assay_type": "cell-based, human", "conditions": "treated after the overlay procedure", "procedure": "Hydrogel Sandwich Preparation: The whole procedure is performed in a biosafety cabinet to maintain sterility. All equipment used was either sterile or sterilized by UV treatment for one hour. To produce the sandwich-like structures, cells were cultured for a given time on regular 2D substrates supported by 25 mm aminosilanized cover slips, rinsed with PBS and dried of the bulk liquid. 35 μl of the hydrogel mixture was added immediately and the sample was covered with a hydrophobic chlorosilanized glass slip to create a homogenous overlay gel. After one hour the top cover slip was carefully removed and the sandwich rinsed with PBS to remove any unbound residues. Subsequently, the gels were incubated for two hours at 37° C./5.0% CO2 in media supplemented with 1.5% or 2% cysteine (w/v) or iodacetamide solution using a shaker to cap or inactivate any remaining free thiols. […]\nImmuno-staining, fluorescence microscopy, and image analysis: Cells were fixed for five minutes in a 10% solution of formaldehyde (Sigma) in PBS (Gibco) and subsequently permeabilized with a 0.5% solution of TritonX 100 (Sigma) in PBS followed by rinsing in PBS. […]\nCell area A and spindle factor r (ratio of major to minor axis of a fitted ellipse) were determined using the built-in functions of ImageJ (available at http:rsb.info.nih.gov/ij; developed by Wayne Rasband, National Institutes of Health, Bethesda, Md.). […]"}, "[2]": {"tested_on": "MSCs, C2C12-myoblasts, hFOB-osteoblasts", "test": "Traction force measurement, cell pre-stress", "assay_type": "cell-based", "conditions": "any matrix", "excerpt": "Traction Force Measurements: Adhesive stresses, imposed on the matrix surface by an adherent cell, generate a displacement field from embedded beads within a soft substratum, which can be mapped on the cell if the gel can be approximated as a semi-infinite solid. Briefly, the well characterized traction force method (Butler et al., 2002, supra; Dembo et al., 1999, supra; Wang et al., 2002b, supra) uses bead displacements between images with, and without, the adherent cell to assemble a displacement field and determine Green's strain function given known material properties of the substratum (elastic modulus, Poisson's ratio, etc). The traction field was used to obtain the cell pre-stress, i.e., the net tensile force over the cell-matrix interface carried by the actin cytoskeleton across a cross-sectional area of the cell that balances cell traction forces (Wang et al., 2002b, supra)."}, "MSCs [3]": {"tested_on": "MSCs", "test": "Lineage marker expression (immunofluorescence, western blot, oligonucleotide array)", "assay_type": "cell-based, human", "conditions": "blebbistatin 50 μM", "procedure": "(§1) 1) Morphological Changes and Immunofluorescence: Changes in cell shape (<4 days), especially the development of neurite-like branches (Engler et al., 2004c, supra) or spindle-like morphologies (Flanagan et al., 2002, supra), were quantified either by the number of membrane branches per mm of cell or by a “spindle factor,” referring to the major cell axis/minor cell axis, respectively. […]\nCells were fixed with formaldehyde, incubated in a 5% albumin blocking solution for 1 hour at 37° C., permeabilized with 0.5% Triton-X-100 and incubated overnight at 4° C. in 1:100 dilution of antibodies in PBS. […] Cell morphology and fluorescently labeled cells were examined on a TE300 inverted epi-fluorescent Nikon or Olympus (TIRF) microscope, imaged on a cascade CCD camera (PhotoMetrics, Huntington, Beach, Calif.), and quantified with Scion Image (Scion Corp., Frederick, Md.).\n2) Western blotting: Cells (with or without blebbistatin treatment, 50 μM) were also plated on 45×50 mm coverslips to obtain enough cells for western blotting. […] Quantification of western blots was done by Scion Image software. […]"}, "[4]": {"test": "Stability in culture media by thin layer chromatography", "assay_type": "physicochemical", "conditions": "50 μM", "procedure": "(§2) To inhibit proliferation, cells were exposed to mitomycin C (10 μg/ml) for 2 hr and washed three times with media prior to plating. Blebbistatin (50 μM; EMD Biosciences, Inc., San Diego, Calif.), a NMM II inhibitor, was applied with every media change and was stable in culture media for up to 48 hours, as determined by thin layer chromatography."}, "vertebrate cells": {"tested_on": "vertebrate cells", "conditions": "cited from earlier work"}, "MSCs [5]": {"tested_on": "MSCs", "test": "MSC morphology (branching, spindle factor, spreading) on collagen-coated gels", "assay_type": "cell-based, human", "procedure": "Cell Culture: Human Mesenchymal Stem Cells (MSCs; Osiris Therapeutics; Baltimore, Md. or Lonza), human osteoblasts (hFOBs; ATCC, Manassas, Va.), primary human skin fibroblasts (FC7) (Engler et al., 2004c, supra), and murine myoblasts (C2C12s; ATCC) were cultured in normal growth media, such as low glucose DMEM (Invitrogen) supplemented with 10% fetal bovine serum (FBS, Sigma) and 1% penicillin/streptomycin (Invitrogen) in regular tissue culture treated flasks (Corning). See also, U.S. Ser. No. 11/351,420. Media was exchanged every other day and cells were used up to passage number nine.\nas §2, §1"}, "[6]": {"tested_on": "MSCs, C2C12-myoblasts, hFOB-osteoblasts", "test": "Creep-test micropipette aspiration, membrane cortical stiffness", "assay_type": "cell-based", "procedure": "Creep-test Micropipette Aspiration: Micropipettes were forged using a deFonbrune-type microforge (Vibratome, St. Louis, Mo.) to a radius of 2-3 μm with an approximately 25° pipette curvature so when mounted in micromanipulators (Nirishige; Japan) at an angle similar to the micropipette's curvature. The end of the pipette was flush with the cell edge. A step pressure drop was imposed on the cell membrane, causing the membrane projection, L, to aspirate into the pipette as a function of time (t), pressure drop (ΔP) and pipette radius (R), as governed by the Sato and coworkers' viscoelastic half-space model (Sato et al., J. Biomech. Eng. 112:263-268 (1990), herein incorporated by reference:\nImages of the projection length were taken every 2 seconds in brightfield on a TE300 inverted Nikon microscope and cascade CCD camera (Photometrics), which allowed accurate fitting of the parameters κ, μ′, and τ to the data to determine the elastic and viscous moduli of each membrane."}, "[7]": {"target": "myosin light chain kinase (MLCK) (Homo sapiens, UniProt Q15746)", "sequence (Q15746 whole entry)": "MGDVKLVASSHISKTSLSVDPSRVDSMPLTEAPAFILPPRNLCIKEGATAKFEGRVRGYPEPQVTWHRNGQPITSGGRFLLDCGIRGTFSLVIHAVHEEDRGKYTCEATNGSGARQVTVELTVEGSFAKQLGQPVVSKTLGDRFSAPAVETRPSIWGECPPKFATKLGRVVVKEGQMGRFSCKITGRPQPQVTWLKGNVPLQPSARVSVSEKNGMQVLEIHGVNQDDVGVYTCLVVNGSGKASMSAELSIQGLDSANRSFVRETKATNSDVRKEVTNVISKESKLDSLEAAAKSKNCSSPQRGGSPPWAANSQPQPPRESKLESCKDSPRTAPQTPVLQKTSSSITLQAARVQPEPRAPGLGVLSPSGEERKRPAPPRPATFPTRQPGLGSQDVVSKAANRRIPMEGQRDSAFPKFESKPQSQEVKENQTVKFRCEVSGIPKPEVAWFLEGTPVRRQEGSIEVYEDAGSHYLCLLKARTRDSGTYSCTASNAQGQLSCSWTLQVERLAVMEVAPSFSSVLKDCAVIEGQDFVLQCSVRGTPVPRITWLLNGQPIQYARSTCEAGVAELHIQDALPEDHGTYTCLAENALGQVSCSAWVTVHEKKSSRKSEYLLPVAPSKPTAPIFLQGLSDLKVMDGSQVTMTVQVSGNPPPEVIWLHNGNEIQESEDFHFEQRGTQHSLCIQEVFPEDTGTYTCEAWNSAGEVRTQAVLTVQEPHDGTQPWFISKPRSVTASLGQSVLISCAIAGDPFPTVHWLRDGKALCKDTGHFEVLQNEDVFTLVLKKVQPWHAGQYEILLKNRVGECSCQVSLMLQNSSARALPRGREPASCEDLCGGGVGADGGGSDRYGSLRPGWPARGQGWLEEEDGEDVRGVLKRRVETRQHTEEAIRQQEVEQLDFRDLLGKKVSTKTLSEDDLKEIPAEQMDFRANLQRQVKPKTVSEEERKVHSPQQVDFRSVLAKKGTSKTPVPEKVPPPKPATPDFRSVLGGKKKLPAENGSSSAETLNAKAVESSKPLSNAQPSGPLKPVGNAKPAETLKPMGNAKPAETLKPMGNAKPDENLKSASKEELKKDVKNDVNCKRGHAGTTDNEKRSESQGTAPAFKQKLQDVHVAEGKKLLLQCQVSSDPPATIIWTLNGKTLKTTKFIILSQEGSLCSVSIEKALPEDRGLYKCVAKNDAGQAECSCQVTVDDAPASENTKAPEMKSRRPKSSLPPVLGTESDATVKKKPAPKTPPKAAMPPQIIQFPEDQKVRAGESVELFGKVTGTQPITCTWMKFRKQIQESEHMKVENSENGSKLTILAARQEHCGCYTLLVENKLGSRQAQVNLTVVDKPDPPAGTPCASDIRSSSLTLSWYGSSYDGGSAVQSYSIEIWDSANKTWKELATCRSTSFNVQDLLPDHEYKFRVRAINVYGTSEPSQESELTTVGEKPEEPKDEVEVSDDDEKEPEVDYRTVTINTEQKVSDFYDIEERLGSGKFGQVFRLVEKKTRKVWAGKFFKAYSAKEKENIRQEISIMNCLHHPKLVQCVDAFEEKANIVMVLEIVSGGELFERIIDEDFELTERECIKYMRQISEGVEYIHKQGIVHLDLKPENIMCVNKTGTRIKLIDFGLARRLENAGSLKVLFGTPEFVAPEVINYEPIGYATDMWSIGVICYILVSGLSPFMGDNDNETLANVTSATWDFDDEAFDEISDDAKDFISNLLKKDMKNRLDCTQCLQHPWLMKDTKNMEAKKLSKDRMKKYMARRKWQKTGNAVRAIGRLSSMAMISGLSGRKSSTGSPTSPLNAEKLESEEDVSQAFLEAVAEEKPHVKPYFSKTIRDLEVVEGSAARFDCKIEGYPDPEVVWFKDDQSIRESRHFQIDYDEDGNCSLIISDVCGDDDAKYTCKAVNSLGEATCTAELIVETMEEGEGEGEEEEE", "conditions": "at concentrations inhibiting NMM II ATPase; cited from earlier work"}, "hMSCs": {"tested_on": "hMSCs", "test": "Nucleus morphology of hMSCs on gels", "assay_type": "cell-based, human", "conditions": "11 kPa substrates", "procedure": "Immuno-staining, fluorescence microscopy, and image analysis: Cells were fixed for five minutes in a 10% solution of formaldehyde (Sigma) in PBS (Gibco) and subsequently permeabilized with a 0.5% solution of TritonX 100 (Sigma) in PBS followed by rinsing in PBS. Samples were then incubated in a 1:250 solution of the appropriate primary antibody in a 3% solution of BSA (Sigma) in PBS for at least 2 hours at room temperature on a rocker. To remove any unspecifically bound antibodies, the gels were incubated with a 0.5% solution of TritonX 100 for five minutes and rinsed with PBS twice, followed by incubation with secondary antibodies (1:250 in 3% BSA in PBS) and rhodamine-phalloidin (Sigma) for at least one hour on a rocker at room temperature. […]\nCell area A and spindle factor r (ratio of major to minor axis of a fitted ellipse) were determined using the built-in functions of ImageJ (available at http:rsb.info.nih.gov/ij; developed by Wayne Rasband, National Institutes of Health, Bethesda, Md.).\nSince matrix elasticity not only influences cell and cytoskeleton morphology, but also the differentiation of hMSCs, and therefore global changes in patterns of gene expression, the morphology of the nucleus was analyzed in terms of projected area A and spindle factor of the projected area r to gain insight into the transduction of mechanical signals from the matrix to the nucleus. […]"}}}
{"smiles": "CC(=O)/C(C)=N/O", "note": "[BDM]", "values": [{"measurement": "neuronal motility", "setting": "neuronal motility", "result": "block neuronal motility"}]}
{"smiles": "Cc1ccc2c(c1)C(=O)C1(O)CCN(c3ccccc3)C1=N2", "note": "(centres unmarked) [blebbistatin]", "values": [{"measurement": "drug concentration inhibiting NMM II ATPase activity", "setting": "NMM II ATPase", "result": "< 10", "unit": "µM"}, {"measurement": "actin stress fibers of cells in sandwich overlay", "setting": "MSCs [1]", "result": "lacked any organized actin stress fibers"}, {"measurement": "spindle factor r of cells in sandwich overlay", "setting": "MSCs [1]", "result": "not significantly different from that of the 2D control"}, {"measurement": "development of pre-stress σ", "setting": "[2]", "result": "prevented any of the cells from developing"}, {"measurement": "lineage marker expression by MSCs", "setting": "MSCs [3]", "result": "blocked all marker expression"}, {"measurement": "stability in culture media", "setting": "[4]", "result": "up to 48 hours"}, {"measurement": "cell blebbing, directed cell migration and cytokinesis", "setting": "vertebrate cells", "result": "blocking cell blebbing and rapidly disrupting directed cell migration and cytokinesis"}, {"measurement": "branching, elongation and spreading of MSCs", "setting": "MSCs [5]; blebbistatin 50 μM, cells on any substrate", "result": "block branching, elongation, and any significant spreading of MSCs"}, {"measurement": "development of cortical stiffness κ", "setting": "[6]; any matrix", "result": "prevented any of the cells from developing"}, {"measurement": "softening of cell membranes (membrane cortical stiffness)", "setting": "[6]; micropipette aspiration, all gels", "result": "more than 3 fold"}, {"measurement": "effect on myosin light chain kinase", "setting": "[7]", "result": "without affecting"}, {"measurement": "matrix-dependent change of nucleus projected area and aspect ratio", "setting": "hMSCs", "result": "inhibited"}]}
{"smiles": "CO[C@@]12[C@H](COC(N)=O)C3=C(C(=O)C(C)=C(N)C3=O)N1C[C@@H]1N[C@@H]12", "note": "[mitomycin-C, mitomycin C]", "values": [{"measurement": "average cell shape after inhibition of proliferation", "setting": "MSCs [5]; mitomycin C 10 μg/ml for 2 hr before plating", "result": "little impact on average cell shape"}]}
